Source: publication PMC1810525, “Antagonism of the prostaglandin D2 receptor CRTH2 attenuates asthma pathology in mouse eosinophilic airway inflammation” (Respiratory Research, 2007)

Experiments:
[1] = molecular target: T1, COX2 (Homo sapiens, UniProt P35354); test: Profiling panel, enzymatic assay COX2; type: biochemical; settings: 10 μM
T1 sequence (P35354 18-604): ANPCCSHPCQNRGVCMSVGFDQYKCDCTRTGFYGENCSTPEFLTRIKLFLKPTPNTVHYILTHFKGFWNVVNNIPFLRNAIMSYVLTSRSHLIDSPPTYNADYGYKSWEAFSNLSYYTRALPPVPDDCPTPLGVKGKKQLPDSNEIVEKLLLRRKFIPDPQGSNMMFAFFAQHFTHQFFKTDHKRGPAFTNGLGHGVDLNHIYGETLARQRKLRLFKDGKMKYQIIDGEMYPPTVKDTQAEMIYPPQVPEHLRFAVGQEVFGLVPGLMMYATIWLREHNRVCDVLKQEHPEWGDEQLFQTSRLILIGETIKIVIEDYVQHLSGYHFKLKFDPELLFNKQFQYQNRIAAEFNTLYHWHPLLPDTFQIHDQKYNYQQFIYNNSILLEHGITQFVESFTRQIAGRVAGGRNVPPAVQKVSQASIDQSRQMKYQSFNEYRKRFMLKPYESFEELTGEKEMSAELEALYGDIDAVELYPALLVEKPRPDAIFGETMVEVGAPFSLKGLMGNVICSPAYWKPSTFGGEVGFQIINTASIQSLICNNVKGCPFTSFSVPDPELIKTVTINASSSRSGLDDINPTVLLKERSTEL
Method: (§1) All assays were performed using recombinant human receptors and enzymes, and included the appropriate controls for assay validation. Enzymatic and binding assays, except for muscarinic binding, were performed by CEREP in vitro pharmacology profiling services. […] For stimulation of C3a, C5a, and ChemR23 receptors in InsP assays the following agonists were used: human recombinant C3a (C3a receptor), human recombinant C5a (C5a receptor), and the nonapeptide Chemerin (ChemR23).

[2] = molecular target: T2, ChemR23 (Homo sapiens, UniProt Q99788); test: Profiling panel, functional InsP ChemR23; type: cell-based; settings: 10 μM
T2 sequence (Q99788 1-373): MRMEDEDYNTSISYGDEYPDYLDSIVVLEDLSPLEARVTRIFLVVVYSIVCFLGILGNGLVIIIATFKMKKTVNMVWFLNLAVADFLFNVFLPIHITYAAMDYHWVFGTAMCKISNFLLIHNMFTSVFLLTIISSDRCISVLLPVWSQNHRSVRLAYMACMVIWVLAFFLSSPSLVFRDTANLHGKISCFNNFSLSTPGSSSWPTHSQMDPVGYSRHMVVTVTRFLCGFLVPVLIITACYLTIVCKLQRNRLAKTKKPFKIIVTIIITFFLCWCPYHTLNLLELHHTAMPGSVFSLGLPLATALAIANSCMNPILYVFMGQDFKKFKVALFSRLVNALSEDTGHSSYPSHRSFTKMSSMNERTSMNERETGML

[3] = molecular target: T3, C5a (Homo sapiens, UniProt P21730); test: Profiling panel, C5a receptor; settings: 10 μM, assay type B (binding) per table
T3 sequence (P21730 1-350): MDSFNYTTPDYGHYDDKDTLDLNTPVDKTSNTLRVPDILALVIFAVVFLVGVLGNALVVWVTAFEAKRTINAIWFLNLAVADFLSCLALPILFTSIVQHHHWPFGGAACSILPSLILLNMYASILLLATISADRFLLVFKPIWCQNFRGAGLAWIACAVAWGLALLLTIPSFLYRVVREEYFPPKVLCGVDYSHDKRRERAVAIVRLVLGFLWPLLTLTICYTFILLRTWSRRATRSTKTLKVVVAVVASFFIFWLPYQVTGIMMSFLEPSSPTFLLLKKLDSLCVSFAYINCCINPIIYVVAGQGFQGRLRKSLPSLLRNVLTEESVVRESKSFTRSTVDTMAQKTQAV
Method: as §1

[4] = molecular target: COX1 (Homo sapiens, UniProt P23219); test: Profiling panel, enzymatic assay COX1; type: biochemical; settings: 10 μM
Method: as §1

[5] = test system: DP; settings: cited from earlier work
[6] = molecular target: T4, AT1 (Homo sapiens, UniProt P30556); test: Profiling panel, radioligand binding AT1; settings: 10 μM
T4 sequence (P30556 1-359): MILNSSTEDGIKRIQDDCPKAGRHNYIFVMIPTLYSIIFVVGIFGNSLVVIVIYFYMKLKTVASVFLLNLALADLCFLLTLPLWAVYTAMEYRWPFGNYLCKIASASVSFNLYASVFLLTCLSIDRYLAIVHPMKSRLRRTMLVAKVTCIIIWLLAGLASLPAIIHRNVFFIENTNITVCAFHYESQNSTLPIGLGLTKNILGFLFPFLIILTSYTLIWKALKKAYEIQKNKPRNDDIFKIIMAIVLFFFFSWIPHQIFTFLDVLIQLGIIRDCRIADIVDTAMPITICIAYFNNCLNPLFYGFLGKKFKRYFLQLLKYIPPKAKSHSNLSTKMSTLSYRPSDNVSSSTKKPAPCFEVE
Method: as §1

[7] = molecular target: T5, CysLT1 (Homo sapiens, UniProt Q9Y271); test: Profiling panel, radioligand binding CysLT1; settings: 10 μM
T5 sequence (Q9Y271 1-337): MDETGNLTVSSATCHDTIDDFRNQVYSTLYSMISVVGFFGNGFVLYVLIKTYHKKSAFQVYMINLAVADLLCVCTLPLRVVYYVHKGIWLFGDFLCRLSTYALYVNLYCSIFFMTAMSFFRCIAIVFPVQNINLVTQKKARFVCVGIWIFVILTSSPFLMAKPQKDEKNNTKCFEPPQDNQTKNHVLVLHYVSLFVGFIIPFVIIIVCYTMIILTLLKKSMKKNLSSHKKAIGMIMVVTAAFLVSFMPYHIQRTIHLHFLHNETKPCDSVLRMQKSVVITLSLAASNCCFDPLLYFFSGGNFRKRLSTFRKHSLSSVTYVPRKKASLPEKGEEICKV
Method: as §1

[8] = molecular target: BLT1 (Homo sapiens, UniProt Q15722); test: Profiling panel, radioligand binding BLT1; settings: 10 μM
Chain of BLT1 (Q15722 whole entry): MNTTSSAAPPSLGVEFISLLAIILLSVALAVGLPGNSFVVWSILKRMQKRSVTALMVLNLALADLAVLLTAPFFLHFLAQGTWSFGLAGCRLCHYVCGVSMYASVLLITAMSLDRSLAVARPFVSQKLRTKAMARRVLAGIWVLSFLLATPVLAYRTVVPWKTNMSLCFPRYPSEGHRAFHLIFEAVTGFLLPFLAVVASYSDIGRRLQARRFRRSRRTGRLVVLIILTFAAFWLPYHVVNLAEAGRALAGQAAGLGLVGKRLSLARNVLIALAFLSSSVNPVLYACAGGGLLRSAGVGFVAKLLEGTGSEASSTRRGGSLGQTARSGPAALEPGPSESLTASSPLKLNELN
Method: as §1

Chain of COX1 (P23219 24-599): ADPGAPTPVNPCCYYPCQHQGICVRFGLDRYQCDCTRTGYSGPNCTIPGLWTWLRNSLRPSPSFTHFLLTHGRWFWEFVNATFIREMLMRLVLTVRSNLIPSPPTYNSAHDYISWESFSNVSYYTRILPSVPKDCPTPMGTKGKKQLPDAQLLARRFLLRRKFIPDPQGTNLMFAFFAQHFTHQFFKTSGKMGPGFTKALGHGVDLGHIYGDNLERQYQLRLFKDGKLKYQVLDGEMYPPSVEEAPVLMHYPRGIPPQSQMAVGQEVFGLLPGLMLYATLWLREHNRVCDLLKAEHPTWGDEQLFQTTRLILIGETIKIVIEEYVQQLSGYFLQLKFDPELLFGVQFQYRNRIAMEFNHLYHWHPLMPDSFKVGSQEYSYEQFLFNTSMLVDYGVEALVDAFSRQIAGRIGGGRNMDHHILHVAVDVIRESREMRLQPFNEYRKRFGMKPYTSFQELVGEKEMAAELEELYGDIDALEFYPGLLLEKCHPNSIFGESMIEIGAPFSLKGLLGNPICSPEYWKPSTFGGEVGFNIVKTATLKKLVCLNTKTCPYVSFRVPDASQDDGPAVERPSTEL

For `CN(C1CCc2c(c3ccccc3n2CC(=O)O)C1)S(=O)(=O)c1ccc(F)cc1` (centres unmarked) [TM30089], the “% of control COX2” value [1] was 123.8 ± 13.4%, the “% of control ChemR23” value [2] was 96.6 ± 1.6% and the “% of control C5a” value [3] was 108.7 ± 6.3%. The “% of control COX1” value [4] was 109.6 ± 3.6%, the “preference for CRTH2 over DP” value [5] was > 1000 fold and the “% of control AT1” value [6] was 90.1 ± 2.8%. The “% of control CysLT1” value [7] was 116.9 ± 10.5% and the “% of control BLT1” value [8] was 89.3 ± 3.5%.
